Laboratory results as given in US12691100B2, “NMT inhibitor treatment of a senescence-associated disease or disorder of the liver” (Imperial College Innovations Limited, priority 2020, dated 2026).

How the values were obtained:
Type in all cases: cell-based, human
IMR90 ER:RAS cells [1] = assay: Unfolded protein response markers (CHOP, XBP1, ATF6) by high throughput microscopy; conditions: 4OHT treated and control cells; FIGS. 13A-D
Experimental: (§1) Immunofluorescence staining was carried out by first fixing wells of 96 well plate at desired timepoint for 1 hour using 4% PFA (w/v, in PBS) followed by washing 3 times with PBS. Wells were then permeabilized using 0.2% Triton® X-100 (v/v, PBS) for 10 min or with 0.5% Triton® X-100 (v/v, PBS) for COPI staining. Wells were then washed twice with PBS to halt permeabilization and then non-specific antibody binding blocked by incubation with a blocking solution for 1 hour at RT. Blocking solution contained 1% BSA (w/v, PBS) supplemented with 0.4% Fish Skin Gelatin (v/v, PBS). Primary antibodies were diluted in respective blocking solution (see ‘Antibodies’ for dilutions), blocking solution removed from well and incubated with primary antibody solution for 1 hour at RT. For BrdU staining primary antibody solution is supplemented with 0.5 U/ul DNase (Sigma) and 1 mM MgCl2 and incubation times reduced to 30 minutes. […]
(§2) High content image analysis was carried out using the InCell Investigator 2.7.3 software (GE Healthcare®). […] Quantification for nuclear staining was measured as average pixel intensity (grey scale) for the wavelength of fluorophore across the area of the nuclear mask. Cytoplasmic staining quantification was of either the average pixel intensity or the coefficient of variance of pixel intensities within collar area. […]

IMR90 ER:RAS cells [2] = assay: Senolytic activity under IRE1 inhibition with KIRA6; conditions: with 600 nM KIRA6, 4OHT treated cells; FIGS. 15A-B
Experimental: High-throughput microscopy survival assay—To assess senolytic effect of drugs, cells were cultured for 7 days, culture media was changed to DM0.5 media and drugs in DMSO were added (<5% v/v final concentration), drugs were replenished after 3 days if assay length was longer than 72 h. Wells were fixed in 4% PFA for 1 hour at day 10 to 14, washed 3 times with PBS and then stained with 1 μg/mL DAPI (w/v, PBS) for 10 minutes. Wells were then washed 3 times with PBS. Optionally plates could be stored at 4° C. for up to 2 weeks and DAPI stained. Image acquisition of DAPI stained cells was performed on an automated InCell Analyser 2000 (GE Healthcare®) and high-content analysis on the InCell Investigator 2.7.3 software used to quantify number of DAPI positive cells per well. A top-hat method was used to segment cell-nuclei based on DAPI stained area and a minimum nuclear area threshold of 80 μm used to exclude debris. For cancer cell lines, nuclear area threshold was reduced to 40 μm. Survival was measured as cell counts relative to DMSO treated quiescent or senescent cells.
To investigate whether the activation of UPR caused by NMT inhibition in senescent cells was responsible for the senolytic potential of NMT inhibitors, cells were treated with KIRA6, a selective inhibitor of IRE1, a kinase necessary for the UPR. IMR90 ER:RAS cells undergoing senescence (after induction with 4OHT), were treated with 600 nM KIRA6 (an IRE1 inhibitor) on day 4 post-induction. On day 7 post-induction, cells were treated with Compound 1 or 2 and 600 nM KIRA6. […] Both NMT inhibitor and Kira6 were replenished 3 days after addition of NMT inhibitor (at day 10 post-induction). Data is shown as mean±SD, n represents independent biological experiments.

IMR90 ER:RAS cells [3] = assay: Intracellular levels of SASP cytokines IL-6 and IL-8 by immunofluorescence; conditions: 4OHT-induced senescent cells; 7 days after addition of the drugs; FIGS. 12A-C
Experimental: as §1, with “RT.” for “RT. For BrdU staining primary antibody solution is supplemented with 0.5 U/ul DNase (Sigma) and 1 mM MgCl2 and incubation times reduced to 30 minutes.”
as §2
The intracellular levels of two SASP components, IL-6 and IL-8 were assessed using stained cells. […]

IMR90 ER:RAS cells [4] = assay: Golgi dispersal by TGN46 staining, high throughput microscopy; conditions: 4OHT-induced senescent cells; 7 days after addition of the drugs; FIGS. 10A-B
Experimental: as §1, §2

Row | Structure (SMILES) | UPR activation (nuclear CHOP, XBP1, ATF6; percentage of cells above threshold) (IMR90 ER:RAS cells [1]) | Dependence of senolytic activity on IRE1 / UPR (IMR90 ER:RAS cells [2]) | Intracellular levels of IL-6 and IL-8 (IMR90 ER:RAS cells [3]) | Golgi dispersal (TGN46 distribution) (IMR90 ER:RAS cells [4])
1 | Cc1nn(C)c(C)c1CCOc1c(-c2ccc3c(c2)c(CN(C)C)nn3C)ccc(F)c1F [Compound 1, 1-(5-(3,4-difluoro-2-(2-(1,3,5-trimethyl-1H-pyrazol-4-yl)ethoxy)phenyl)-1-methyl-1H-indazol-3-yl)-N,N-dimethylmethanamine] | causes the induction of the unfolded protein response on senescent cells | dependent on IRE1 and the unfolded protein response | selectively resulted in an intracellular accumulation of these cytokines on senescent cells | selectively caused Golgi dispersal on senescent cells
2 | Cc1c(NS(=O)(=O)c2c(Cl)cc(-c3ccnc(N4CCNCC4)c3)cc2Cl)c(CC(C)C)nn1C [Compound 2] | causes the induction of the unfolded protein response on senescent cells | dependent on IRE1 and the unfolded protein response | selectively resulted in an intracellular accumulation of these cytokines on senescent cells | selectively caused Golgi dispersal on senescent cells
